# Measurements: patent US9260485B2 (priority 2009, dated 2016)
# Square brackets hold non-standard residues; d marks the D form. Peptide text beside a SMILES is read from it. ξ: configuration not given here. Hica(2S) = CC(C)C[C@H](O)C(=O)O; ξLac(3-iPr) = CC(C)CC(O)C(=O)O; NMeL = CN[C@@H](CC(C)C)C(=O)O
# Assays:
# [1] = test system: A549 non-small-cell lung cancer cell line; assay: In vitro cytotoxicity, SRB method; assay type: cell-based, Human; conditions: Homo sapiens, A549, read-out: EC50 (concentration inhibiting cell growth in vitro by 50%)
# Method: (§1) Known cyclic hexadepsipeptides (beauvericin, enniatin H, I, and MK1688) and the compounds of Chemical Formulas 1 and 2 were evaluated for in vitro cytotoxicity against various non-multidrug-resistant human cancer cell lines and multidrug-resistant cancer cell lines using the SRB method.
# (§2) Human non-small-cell lung cancer cell line (A549) ovarian cancer cell line (SK-OV-3), skin cancer cell line (SK-MEL-2), and uterine sarcoma cell line MES-SA and its multi-drug resistant subline (MES-SA/DX5) were purchased from the American Type Culture Collection (USA). Colorectal carcinoma cancer cell line (HCT-15) was provided by the National Cancer Institute (NCI). HCT15/CL02 cell lines were established from HCT15 cells by continuous and stepwise exposure of the cells to doxorubicin in the Korea Research Institute of Chemical Technology (Korea).
# [2] = test system: HCT15 colorectal carcinoma cancer cell line; assay: In vitro cytotoxicity, SRB method; assay type: cell-based, Human; conditions: Homo sapiens, HCT-15, read-out: EC50 (concentration inhibiting cell growth in vitro by 50%)
# Method: as §1, §2
# [3] = test system: HCT15/CL02 cell line (doxorubicin-selected from HCT15); assay: In vitro cytotoxicity, SRB method; assay type: cell-based, Human; conditions: Homo sapiens, HCT-15, read-out: EC50 (concentration inhibiting cell growth in vitro by 50%)
# Method: as §1, §2
# [4] = test system: MES-SA uterine sarcoma cell line; assay: In vitro cytotoxicity, SRB method; assay type: cell-based, Human; conditions: Homo sapiens, read-out: EC50 (concentration inhibiting cell growth in vitro by 50%)
# Method: as §1, §2
# [5] = test system: MES-SA/DX5 multi-drug resistant subline; assay: In vitro cytotoxicity, SRB method; assay type: cell-based, Human; conditions: Homo sapiens, MES-SA/Dx5, read-out: EC50 (concentration inhibiting cell growth in vitro by 50%)
# Method: as §1, §2
# [6] = test system: SK-MEL-2 skin cancer cell line; assay: In vitro cytotoxicity, SRB method; assay type: cell-based, Human; conditions: Homo sapiens, SK-MEL-2, read-out: EC50 (concentration inhibiting cell growth in vitro by 50%)
# Method: as §1, §2
# [7] = test system: SK-OV-3 ovarian cancer cell line; assay: In vitro cytotoxicity, SRB method; assay type: cell-based, Human; conditions: Homo sapiens, SK-OV-3, read-out: EC50 (concentration inhibiting cell growth in vitro by 50%)
# Method: as §1, §2
# [8] = test system: MDR cell lines (MES-SA/DX5 and HCT15/CL02); assay: Multidrug resistance-reversing activity, summary in words; assay type: cell-based, Human
# Method: The cyclic pentadepsipeptides of Chemical Formulas 1 and 2 were analyzed for MDR-reversing activity by comparing inhibitory activities against multidrug-resistant cancer cell lines (MES-SA/DX5 and HCT15/CL02) with those against non-multidrug-resistant cancer cell lines (MES-SA and HCT15). In this regard, the effects of the cyclic pentadepsipeptides of Chemical Formulas 1 and 2 on paclitaxel's cytotoxicity against MDR tumor cells were measured (Table 6). […].
# Therefore, the N-methyl group in the cyclic pentadepsipeptide may be a factor crucial for the expression of the MDR reversal activity. […]
# [9] = test system: Bacillus cereus ATCC 13061; assay: Anti-bacterial activity, paper disc clear zone; assay type: cell-based; conditions: 0.1, 0.5, 1 and 2 mM on paper disc; 37° C., 24 hr
# Method: (§3) Assays for antibacterial activity were performed with 3 Gram-positive (Listeria monocytogenes ATCC 14028, Staphylococcus aureus ATCC 35556 and Bacillus cereus ATCC 13061) and 3 Gram-negative bacteria (Escherichia coli ATCC 8739, Pseudomonas aeruginosa ATCC 9026 and Salmonella typhimurium ATCC 14028). Each of the compounds of Chemical Formulas 1 and 2 was dissolved in different concentrations (0.1, 0.5, 1, and 2 mM) in dimethyl sulfoxide (DMSO). The solutions were applied to a sterile paper disc (5 mm diameter), followed by evaporating the DMSO solvent. Bacteria was inoculated at a density of 1×10^7 CFU/ml on Tryptic soy agar (TSA) and then, the paper disc was placed on the bacteria-inoculated agars. After incubation at 37° C. for 24 hr, the clear zone around each disc was observed and its diameter was measured.
# [10] = test system: Escherichia coli ATCC 8739; assay: Anti-bacterial activity, paper disc clear zone; assay type: cell-based; conditions: 0.1, 0.5, 1 and 2 mM on paper disc; 37° C., 24 hr
# Method: as §3
# [11] = test system: Listeria monocytogenes ATCC 14028; assay: Anti-bacterial activity, paper disc clear zone; assay type: cell-based; conditions: 0.1, 0.5, 1 and 2 mM on paper disc; 37° C., 24 hr
# Method: as §3
# [12] = test system: Pseudomonas aeruginosa ATCC 9026; assay: Anti-bacterial activity, paper disc clear zone; assay type: cell-based; conditions: 0.1, 0.5, 1 and 2 mM on paper disc; 37° C., 24 hr
# Method: as §3
# [13] = test system: Salmonella typhimurium ATCC 14028; assay: Anti-bacterial activity, paper disc clear zone; assay type: cell-based; conditions: 0.1, 0.5, 1 and 2 mM on paper disc; 37° C., 24 hr
# Method: as §3
# [14] = test system: Staphylococcus aureus ATCC 35556; assay: Anti-bacterial activity, paper disc clear zone; assay type: cell-based; conditions: 0.1, 0.5, 1 and 2 mM on paper disc; 37° C., 24 hr
# Method: as §3
# Aspergillus oryzae = assay: Anti-fungal activity, paper disc on mycelia on PDA; assay type: cell-based; conditions: 1 mM; 25° C., 48 hr
# Method: (§4) Inhibitory activity was performed against four fungus strains (Mucor rouxii, Penicillium citrinum, Fusarium oxysporum, and Aspergillus oryzae).
# (§5) Drops of 1 and 10 mM solutions of compounds of Chemical Formulas 1 and 2 in methanol were loaded onto sterile paper discs (8 mm diameter) and the methanol solvent was evaporated under a hood. The paper discs were placed on fungus mycelia grown on potato dextrose agar. After incubation at 25° C. for 48 hr, clear zones around the discs were observed and their diameters were measured. A filter treated with pure methanol was used as a negative control.
# Fusarium oxysporum = assay: Anti-fungal activity, paper disc on mycelia on PDA; assay type: cell-based; conditions: for Inhibitory activity on mycelial growth: 1 mM; for Inhibitory activity on mycelial growth / Clear zone / inhibitory effect on mycelium: 25° C., 48 hr; for Clear zone / inhibitory effect on mycelium: 10 mM
# Method: as §4, §5
# Mucor rouxii = assay: Anti-fungal activity, paper disc on mycelia on PDA; assay type: cell-based; conditions: for Inhibitory activity on mycelial growth: 1 mM; for Inhibitory activity on mycelial growth / Clear zone / Hyphal growth near the paper disc: 25° C., 48 hr; for Clear zone / Hyphal growth near the paper disc: 10 mM
# Method: as §4, §5
# Penicillium citrinum = assay: Anti-fungal activity, paper disc on mycelia on PDA; assay type: cell-based; conditions: 1 mM; 25° C., 48 hr
# Method: as §4, §5
# [15] = test system: NCI human tumor cell line screen; conditions: cited from earlier work
# HCT15/CL02 = assay: Multidrug resistance-reversing activity: effect on paclitaxel's cytotoxicity; assay type: cell-based; conditions: Homo sapiens, HCT-15, TAX alone
# Method: (§6) The cyclic pentadepsipeptides of Chemical Formulas 1 and 2 were analyzed for MDR-reversing activity by comparing inhibitory activities against multidrug-resistant cancer cell lines (MES-SA/DX5 and HCT15/CL02) with those against non-multidrug-resistant cancer cell lines (MES-SA and HCT15). In this regard, the effects of the cyclic pentadepsipeptides of Chemical Formulas 1 and 2 on paclitaxel's cytotoxicity against MDR tumor cells were measured (Table 6).
# HCT15 = assay: as above; assay type: cell-based; conditions: Homo sapiens, HCT-15, TAX alone
# Method: as §6
# MES-SA/DX5 = assay: as above; assay type: cell-based; conditions: Homo sapiens, TAX alone
# Method: as §6
# MES-SA = assay: as above; assay type: cell-based; conditions: Homo sapiens, TAX alone
# Method: as §6
# HCT-116 colon carcinoma = conditions: cited from earlier work
SMILES,EC50 [1] [µM],EC50 [2] [µM],EC50 [3] [µM],EC50 [4] [µM],EC50 [5] [µM],EC50 [6] [µM],EC50 [7] [µM],Effect on the cytotoxicity of paclitaxel against MDR cell lines [8],Inhibitory activity (clear zone around disc) [9],Inhibitory activity (clear zone around disc) [10],Inhibitory activity (clear zone around disc) [11],Inhibitory activity (clear zone around disc) [12],Inhibitory activity (clear zone around disc) [13],Inhibitory activity (clear zone around disc) [14],Inhibitory activity on mycelial growth (Aspergillus oryzae),"Antifungal test, overall result (Fusarium oxysporum)",Inhibitory activity on mycelial growth (Fusarium oxysporum),Clear zone / inhibitory effect on mycelium (Fusarium oxysporum),"Antifungal test, overall result (Mucor rouxii)",Inhibitory activity on mycelial growth (Mucor rouxii),also measured
"CC(C)CC1OC(=O)[C@H](CC(C)C)NC(=O)[C@H](Cc2ccccc2)NC(=O)[C@H](C(C)C)NC(=O)[C@H](CC(C)C)NC1=O (stereo partly shown) [Com. 1, neo-sansalvamide] (cyclo(FL[ξLac(3-iPr)]LV))",11.7 ± 0.55,9.95 ± 1,22.1 ± 2.45,11.8 ± 0.13,19.4 ± 1.1,14 ± 1.32,10.4 ± 0.64,"increased the cytotoxicity of paclitaxel against MDR cell lines, but only slightly",Neither the compound of Chemical Formula 1 nor Chemical Formula 2 showed inhibitory activity,Neither the compound of Chemical Formula 1 nor Chemical Formula 2 showed inhibitory activity,Neither the compound of Chemical Formula 1 nor Chemical Formula 2 showed inhibitory activity,Neither the compound of Chemical Formula 1 nor Chemical Formula 2 showed inhibitory activity,Neither the compound of Chemical Formula 1 nor Chemical Formula 2 showed inhibitory activity,Neither the compound of Chemical Formula 1 nor Chemical Formula 2 showed inhibitory activity,No inhibitory activities were detected,"inhibitory against Mucor rouxii, and Fusarium oxysporum, weakly",No inhibitory activities were detected,did not produce a clear zone,"inhibitory against Mucor rouxii, and Fusarium oxysporum, weakly",No inhibitory activities were detected,Clear zone (Mucor rouxii): no clear zones were observed; Hyphal growth near the paper disc (Mucor rouxii): hyphal growth of Mucor rouxii was reduced; Inhibitory activity on mycelial growth (Penicillium citrinum): No inhibitory activities were detected
CC(C)C[C@@H]1NC(=O)[C@H](Cc2ccccc2)NC(=O)[C@H](CC(C)C)N(C)C(=O)[C@H](C(C)C)NC(=O)[C@H](CC(C)C)OC1=O [N-Methylsansalvamide] (cyclo(FL[Hica(2S)]V[NMeL])),–,–,–,–,–,–,–,–,–,–,–,–,–,–,–,–,–,–,–,–,GI50 [15]: 8.3 µM
"CC(=O)O[C@H]1C(=O)[C@@]2(C)[C@H]([C@H](OC(=O)c3ccccc3)[C@]3(O)C[C@H](OC(=O)[C@H](O)[C@@H](NC(=O)c4ccccc4)c4ccccc4)C(C)=C1C3(C)C)[C@]1(OC(C)=O)CO[C@@H]1C[C@@H]2O [TAX, paclitaxel]",–,–,–,–,–,–,–,–,–,–,–,–,–,–,–,–,–,–,–,–,EC50 (HCT15/CL02): > 1 µM; EC50 (HCT15): 0.00085 ± 0.00063 µM; EC50 (MES-SA/DX5): 0.01 ± 0.00053 µM; EC50 (MES-SA): 0.001 ± 0.0002 µM
"CC(C)CC1OC(=O)[C@H](Cc2ccccc2)NC(=O)[C@H](CC(C)C)NC(=O)[C@H](C(C)C)NC(=O)[C@H](CC(C)C)N(C)C1=O (stereo partly shown) [Com. 2, neo-Nmethylsansalvamide] (cyclo(F[ξLac(3-iPr)][NMeL]VL))",10.7 ± 0.15,12.5 ± 0.71,13.5 ± 1.19,14 ± 0.74,11.4 ± 0.3,10 ± 0.53,11.2 ± 1.23,remarkably enhanced the cytotoxicity of paclitaxel,Neither the compound of Chemical Formula 1 nor Chemical Formula 2 showed inhibitory activity,Neither the compound of Chemical Formula 1 nor Chemical Formula 2 showed inhibitory activity,Neither the compound of Chemical Formula 1 nor Chemical Formula 2 showed inhibitory activity,Neither the compound of Chemical Formula 1 nor Chemical Formula 2 showed inhibitory activity,Neither the compound of Chemical Formula 1 nor Chemical Formula 2 showed inhibitory activity,Neither the compound of Chemical Formula 1 nor Chemical Formula 2 showed inhibitory activity,No inhibitory activities were detected,"inhibitory against Mucor rouxii, and Fusarium oxysporum, weakly",No inhibitory activities were detected,"exhibited an inhibitory effect at 10 mM, weakly","inhibitory against Mucor rouxii, and Fusarium oxysporum, weakly",No inhibitory activities were detected,Clear zone (Mucor rouxii): no clear zones were observed; Hyphal growth near the paper disc (Mucor rouxii): hyphal growth of Mucor rouxii was reduced; Inhibitory activity on mycelial growth (Penicillium citrinum): No inhibitory activities were detected
CC(C)C[C@@H]1NC(=O)[C@H](C(C)C)NC(=O)[C@H](CC(C)C)OC(=O)[C@H](CC(C)C)NC(=O)[C@H](Cc2ccccc2)NC1=O [sansalvamide] (cyclo(FL[Hica(2S)]VL)),–,–,–,–,–,–,–,–,–,–,–,–,–,–,–,–,–,–,–,–,in vitro IC50 (HCT-116 colon carcinoma): 9.8 mg/L
